Source: patent US20080131404A1, “Hepatocytes” (priority 2004, published 2008)

Legend:
[1] = test system: clone 20 hepatocytes (c-myc-ER infected human foetal hepatocytes); assay: Telomerase assay (Telo TAGGG telomerase PCR ELISA); assay type: cell-based; conditions: hepatocytes cultured in 0.5-10 μM 4-OHT
Experimental: Cells from clone 20, p2 were cultured in T25 flasks for 1 week in media with 0, 100 nM, 1 μM and 10 μM 4-OHT for 1 week. The cells had been in culture for 2 months. Uninfected hepatocytes from the same liver were also used for the assay. These cells had been in culture for 3 weeks. The assay was performed according to the instructions for the Telo TAGGG telomerase PCR ELISAPWs (Roche). The plate reader GENios (Tecan) was used to analyse the results. Some of the fluorescence values were too high for the plate readers' spectra so a change to the protocol was done and the fluorescence was measured from only ⅓ of the final volume.

LIV0A07 [2] = assay: Cyquant cell proliferation assay; assay type: cell-based, human
Experimental: Growth rate was assessed using the Cyquant cell proliferation assay (Molecular Probes, Paisley, UK). Cells were grown in multiwell plates or 25 cm^2 flasks and experiments were performed according to the manufacturers instructions.
Growth rate was assessed using the Cyquant cell proliferation assay to compare growth of LIV0A07 over 5 days in […] 4-OHT.

LIV0A07 [3] = assay: TaqMan analysis of CYP3A4/CYP3A7 mRNA in LIV0A07; assay type: cell-based, human
Experimental: (§1) A standard TaqMan protocol was following using a 96 well optical reaction plate (Applied Biosystems, CA, USA). All probes and primers were supplied by MWG-Biotech, Ebersberg, Germany (see table 3). All probes were labelled with 3′TAMRA and 5′FAM. The reaction plate was sealed with optical adhesive cover (Applied Biosystems, CA, USA) and centrifuged for 1 min at 500 g before loading onto the TaqMan machine (ABI prism 7000 sequence detection system) and results analysed with ABI prism 7000 SDS software.

HuH7 cells = assay: TaqMan analysis of CYP3A4 mRNA in HuH7; assay type: cell-based, human; conditions: HuH7 samples
Experimental: as §1

LIV0A07 [4] = assay: Immunocytochemistry for hepatocyte markers albumin and CK-18; assay type: cell-based, human; conditions: grown in the absence of 4-OHT for 48 h
Experimental: Immunocytochemistry was used for early assessment of the cell line. […] The human hepatoma cell line HuH7 was used as a positive control for liver markers, while a myc-immortalised neural stem cell line (197VM) cells were used as a negative control.
All staining was performed in multiwell plates using the following method. Medium was aspirated and cells washed once with PBS prior to fixing using 4% paraformaldehyde for 15 min at room temperature. Cells were then washed three times in PBS, before being permeabilised for 15 min using 0.1% triton x-100 in PBS. Cells were washed with PBS once more then blocked for 1 h in 10% normal goat serum (NGS) (Vector Laboratories, CA, USA) in PBS. Primary antibodies were applied in 1% NGS/PBS for 1 h at room temperature. Cells were washed three times in PBS then exposed to the secondary antibody in 1% NGS/PBS for 1 h at room temperature. Cells were washed three times in PBS and Hoechst, a dye that stains DNA, was added for 2 min at room temperature (1:25,000 in PBS). Cells were washed a further three times in PBS and left in the final wash. Analysis was performed using a fluorescence microscope (Leica DMRA). The secondary antibody excited at a wavelength of ˜488 nm and gave emission at ˜525 nm (green emission) while Hoechst excited at ˜350 nm and emitted at ˜425 nm (blue emission).

human foetal liver cells = assay: Neomycin titre and selection; assay type: cell-based; conditions: 250 μg/ml neomycin, 2 week selection
Experimental: To determine what concentration of neomycin to use on the liver cells exposed to the virus, in order to eliminate all or the majority of non-infected cells, but not the infected cells, a titre of neomycin was set up. Human foetal liver cells from a dissociated liver that had never been exposed to the immortalising virus were plated in 6-well plates and exposed to neomycin concentrations ranging from 0-900 μg/ml for 12 days in triplicate. 100, 500 and 2000 cells/well were plate and the cells were left for 2 days before the neomycin was added. The growth and proliferation of the cells were studied visually with the TMS-F microscope (Nikon). Based on the result from the neomycin titre a concentration of 250 μg/ml neomycin was used for 2 weeks on the liver cells exposed to the immortalising virus.

telomerase expression [1] | CYP3A4 mRNA level, differentiated vs undifferentiated cultures (LIV0A07 [3]; grown in the absence of 4-OHT for 72 h compared to cultures with 4-OHT) | effect of 4-OHT on CYP3A4 mRNA expression (HuH7 cells) | Compound | proliferation (LIV0A07 [2]; 0.1 mM 4-OHT, 5 days) | toxicity to the cells (LIV0A07 [2]; 1.0 mM 4-OHT, initial slow proliferation after seeding) | proliferation (LIV0A07 [2]; 0.5 and 1.0 mM 4-OHT, 5 days) | optimum concentration for 4-OHT dependent growth (LIV0A07 [2]; in the medium, 5 days) [mM] | CYP3A7 mRNA level on differentiation (LIV0A07 [3]; absence of 4-OHT) | albumin and CK-18 staining, differentiated cultures (LIV0A07 [4]) | survival of noninfected cells during selection (human foetal liver cells)
up regulates telomerase expression | approximately 15 fold | no effect | 4-hydroxytamoxifen [4-OHT] | Little proliferation | may be slightly toxic | expanded to a greater extent | 0.5 to 1.0 | did not display the same differentiation induced increase | slightly stronger | 
 |  |  | NC[C@@H]1O[C@H](O[C@H]2[C@@H](O)[C@H](O[C@@H]3[C@@H](O)[C@H](N)C[C@H](N)[C@H]3O[C@H]3O[C@H](CN)[C@@H](O)[C@H](O)[C@H]3N)O[C@@H]2CO)[C@H](N)[C@@H](O)[C@@H]1O [neomycin, Neomycin] |  |  |  |  |  |  | majority of the noninfected cells died
